Laboratory results published in patent US20110311562A1, “Glycolipid Mixture with Anti-Inflammatory Activity Obtained from Oscillatoria Planktothrix” (priority 2009, published 2011).

Biological target: T1, membrane ATP synthase (Homo sapiens, UniProt P06576+P25705+P36542)
T1 construct: Measurement of the effect of OPFP1 on the production of extracellular ATP in the SH-SY5Y cell line; endogenous in cells; host or cells: SH-SY5Y human neuroblastoma cells
Assay: Production of extracellular ATP in SH-SY5Y cell line
Assay type: cell-based
Conditions: after 5′ pre-incubation, OPFP1 mixture 10 μg/ml, piceatannol 4 μM, read-out: maximum inhibition of ATP synthesis
Protocol: FIG. 6. Production of extracellular ATP. Measurement of the effect of OPFP1 on the production of extracellular ATP in the SH-SY5Y cell line. (A) analysis of the effects on ATP production at different pre-incubation times; (B) evaluation of the effects elicited by different concentrations of the OPFP1 mixture (results are the mean of three independent experiments).
The mixture not only binds this enzyme complex but also modulates its activity. As positive control, piceatannol (3,4,3′,5′-tetrahydroxy-trans-stilbene) was used, that is a resveratrol metabolite well-known for its inhibitory activity on the production of extracellular ATP.

- inhibition at 4 µM: 97%
SMILES: Oc1cc(O)cc(/C=C/c2ccc(O)c(O)c2)c1 [piceatannol, 3,4,3′,5′-tetrahydroxy-trans-stilbene]
